Paper PMC4554834 (Bioorganic & medicinal chemistry, 2015)

Tests used:
OX1 = conditions: cited from earlier work
human OX1 receptors = molecular target: T1, human OX1 receptors (Homo sapiens, UniProt O43613); assay: Calcium mobilization Ke; assay type: cell-based; conditions: for OX1 potency (in words): qualitative statement
T1 sequence (O43613 1-425): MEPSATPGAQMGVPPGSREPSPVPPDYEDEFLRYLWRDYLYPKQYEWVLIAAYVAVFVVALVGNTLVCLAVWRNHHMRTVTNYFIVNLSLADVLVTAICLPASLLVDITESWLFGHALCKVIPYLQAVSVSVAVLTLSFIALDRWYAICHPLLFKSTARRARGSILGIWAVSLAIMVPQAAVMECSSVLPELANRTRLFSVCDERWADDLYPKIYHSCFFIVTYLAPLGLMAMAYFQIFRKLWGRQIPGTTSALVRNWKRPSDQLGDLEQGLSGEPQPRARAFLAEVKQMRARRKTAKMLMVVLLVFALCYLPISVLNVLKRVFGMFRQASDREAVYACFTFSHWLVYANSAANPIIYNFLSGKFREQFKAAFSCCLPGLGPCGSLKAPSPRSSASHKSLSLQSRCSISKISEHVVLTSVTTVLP

human OX2 receptors = molecular target: T2, human OX2 receptors (Homo sapiens, UniProt O43614); assay: Calcium mobilization Ke; assay type: cell-based
T2 sequence (O43614 1-444): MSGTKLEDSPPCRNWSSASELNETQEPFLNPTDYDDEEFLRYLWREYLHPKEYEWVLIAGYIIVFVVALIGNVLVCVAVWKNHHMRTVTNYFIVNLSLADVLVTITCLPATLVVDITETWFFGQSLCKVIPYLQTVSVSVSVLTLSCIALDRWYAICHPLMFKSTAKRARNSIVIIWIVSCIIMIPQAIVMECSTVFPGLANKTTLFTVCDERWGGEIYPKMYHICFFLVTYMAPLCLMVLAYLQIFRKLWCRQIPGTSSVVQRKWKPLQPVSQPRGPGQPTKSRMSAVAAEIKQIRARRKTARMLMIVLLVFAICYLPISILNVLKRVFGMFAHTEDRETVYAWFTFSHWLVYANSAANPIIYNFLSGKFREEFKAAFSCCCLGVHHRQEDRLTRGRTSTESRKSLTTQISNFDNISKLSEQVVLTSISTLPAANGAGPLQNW

[1] = cited from earlier work
OX2 receptor = conditions: cited from earlier work
[2] = pre-incubation increased to 45 min and 60 min
[3] = simultaneous addition of antagonist and Orexin A

For Cc1nc2ccc(NC(=O)Nc3ccnc4cccnc34)cc2o1 [SB-334867], which “selectivity for OX1 over OX2” value (OX1) is on record?
The value was ~ 50 fold.

With COC(=O)Nc1ccc2c(c1)CCN(CC(=O)NCc1ccccc1)C2Cc1ccc(OC)c(OC)c1 (stereo not drawn) [23a, Methyl N-{2-[(benzylcarbamoyl)methyl]-1-[(3,4-dimethoxyphenyl)methyl]-1,2,3,4-tetrahydroisoquinolin-6-yl}carbamate] as the compound, how does the Kb (human OX1 receptors) read?
The Kb was 2400 ± 320 nM.

And the “OX1 potency (in words)” value (human OX1 receptors)?
Its value is “slight potency”.

And the Kb (human OX2 receptors)?
Its Kb is greater than 10000 nM.

With COc1ccc(CC2c3ccc(OS(C)(=O)=O)cc3CCN2CC(=O)NCc2ccccc2)cc1OC (stereo not drawn) [18a, 2-[(Benzylcarbamoyl)methyl]-1-[(3,4-dimethoxyphenyl)methyl]-1,2,3,4-tetrahydroisoquinolin-6-yl methanesulfonate] as the compound, how does the Kb (human OX1 receptors) read?
The Kb was greater than 10000 nM.

What about the Kb (human OX2 receptors) of the same compound?
The Kb was 1330 ± 260 nM.

What does the source list for COc1cc2c(cc1OC)CN(C(=O)[C@@H](NCc1ccncc1)C(C)(C)C)CC2 [TCS-OX2-29]?
effect on cocaine self-administration [1]: no effect; effect on cue-induced reinstatement ([1]; cocaine): no effect

For CCC(=O)Oc1ccc2c(c1)CCN(CC(=O)NCc1ccccc1)C2Cc1ccc(OC)c(OC)c1 (stereo not drawn) [compound 19, 2-[(Benzylcarbamoyl)methyl]-1-[(3,4-dimethoxyphenyl)methyl]-1,2,3,4-tetrahydroisoquinolin-6-yl propanoate], which Kb (human OX1 receptors) is on record?
The Kb was greater than 10000 nM.

What about the Kb (human OX2 receptors) of the same compound?
Its Kb is 1290 ± 130 nM.

For CCCOc1ccc2c(c1)C(Cc1ccc(OC)c(OC)c1)N(CC(=O)NCc1ccccc1)CC2 (stereo not drawn) [10c, N-Benzyl-2-{1-[(3,4-dimethoxyphenyl)methyl]-7-propoxy-1,2,3,4-tetrahydroisoquinolin-2-yl}acetamide], which Kb (human OX1 receptors) is on record?
The Kb was 23.7 ± 7.9 nM.

And the “mode of antagonism at OX1” value (human OX1 receptors; 15 minute pre-incubation)?
Its value is “competitive antagonism”.

What about the “selectivity for OX1 over OX2” value (human OX1 receptors; OX2 versus OX1 Ke) of the same compound?
The value was greater than 100 fold.

What about the Kb (human OX2 receptors) of the same compound?
The Kb was 2550 ± 260 nM.

What does the source list for COc1ccc2c(c1)C(Cc1ccc(OC)c(OC)c1)N(CC(=O)NCc1ccccc1)CC2 (stereo not drawn) [10a, N-Benzyl-2-{1-[(3,4-dimethoxyphenyl)methyl]-7-methoxy-1,2,3,4-tetrahydroisoquinolin-2-yl}acetamide]?
Kb (human OX1 receptors): 512 ± 36 nM; Kb (human OX2 receptors): 1680 ± 330 nM

With CNC(=O)[C@@H](c1ccccc1)N1CCc2cc(OC)c(OC)cc2[C@@H]1CCc1ccc(C(F)(F)F)cc1 [Almorexant, almorexant] as the compound, how does the “mode of antagonism at the OX2 receptor” value (OX2 receptor) read?
The value was “insurmountable antagonist”.

For CCOC(=O)CCCNc1ccc2c(c1)CCN(CC(=O)NCc1ccccc1)C2Cc1ccc(OC)c(OC)c1 (stereo not drawn) [26d, Ethyl 4-({2-[(benzylcarbamoyl)methyl]-1-[(3,4-dimethoxyphenyl)methyl]-1,2,3,4-tetrahydroisoquinolin-6-yl}amino)butanoate], which Kb (human OX1 receptors) is on record?
The Kb was 591 ± 67 nM.

And the “OX1 potency (in words)” value (human OX1 receptors)?
The value was “some activity”.

And the Kb (human OX2 receptors)?
Its Kb is greater than 10000 nM.

Which Kb (human OX1 receptors) does the source give for CCCCCC(=O)Nc1ccc2c(c1)CCN(CC(=O)NCc1ccccc1)C2Cc1ccc(OC)c(OC)c1 (stereo not drawn) [28b, N-{2-[(Benzylcarbamoyl)methyl]-1-[(3,4-dimethoxyphenyl)methyl]-1,2,3,4-tetrahydroisoquinolin-6-yl}hexanamide] here?
Its Kb is greater than 10000 nM.

What about the Kb (human OX2 receptors) of the same compound?
The Kb was greater than 10000 nM.

Which Kb (human OX1 receptors) does the source give for CCOC(=O)Nc1ccc2c(c1)CCN(CC(=O)NCc1ccccc1)C2Cc1ccc(OC)c(OC)c1 (stereo not drawn) [23b, Ethyl N-{2-[(benzylcarbamoyl)methyl]-1-[(3,4-dimethoxyphenyl)methyl]-1,2,3,4-tetrahydroisoquinolin-6-yl}carbamate] here?
Its Kb is greater than 10000 nM.

And the “OX1 potency (in words)” value (human OX1 receptors)?
Its value is “not active”.

And the Kb (human OX2 receptors)?
The Kb was greater than 10000 nM.

Which results are given for COc1ccc(CC2c3ccc(N4CCCC4)cc3CCN2CC(=O)NCc2ccccc2)cc1OC (stereo not drawn) [25p, N-Benzyl-2-{1-[(3,4-dimethoxyphenyl)methyl]-6-(pyrrolidin-1-yl)-1,2,3,4-tetrahydroisoquinolin-2-yl}acetamide]?
Kb (human OX1 receptors): 2480 ± 6 nM; OX1 potency (in words) (human OX1 receptors): some potency

With COc1ccc(CC2c3ccc(NCCCCOc4ccccc4)cc3CCN2CC(=O)NCc2ccccc2)cc1OC (stereo not drawn) [25l, N-Benzyl-2-{1-[(3,4-dimethoxyphenyl)methyl]-6-[(4-phenoxybutyl)amino]-1,2,3,4-tetrahydroisoquinolin-2-yl}acetamide] as the compound, how does the Kb (human OX1 receptors) read?
Its Kb is 2080 ± 20 nM.

Which Kb (human OX1 receptors) does the source give for COc1ccc(CC2c3ccc(N(C)C)cc3CCN2CC(=O)NCc2ccccc2)cc1OC (stereo not drawn) [25a, N-Benzyl-2-{1-[(3,4-dimethoxyphenyl)methyl]-6-(dimethylamino)-1,2,3,4-tetrahydroisoquinolin-2-yl}acetamide] here?
Its Kb is 1370 ± 100 nM.

For CCCCOc1ccc2c(c1)C(Cc1ccc(OC)c(OC)c1)N(CC(=O)NCc1ccccc1)CC2 (stereo not drawn) [10e, N-Benzyl-2-{7-butoxy-1-[(3,4-dimethoxyphenyl)methyl]-1,2,3,4-tetrahydroisoquinolin-2-yl}acetamide], which Kb (human OX1 receptors) is on record?
Its Kb is 230 ± 70 nM.

With COc1ccc(CC2c3ccc(NC(=O)c4ccccc4)cc3CCN2CC(=O)NCc2ccccc2)cc1OC (stereo not drawn) [28c, N-{2-[(Benzylcarbamoyl)methyl]-1-[(3,4-dimethoxyphenyl)methyl]-1,2,3,4-tetrahydroisoquinolin-6-yl}benzamide] as the compound, how does the Kb (human OX1 receptors) read?
The Kb was greater than 10000 nM.

For CCOC(=O)CCCOc1ccc2c(c1)CCN(CC(=O)NCc1ccccc1)C2Cc1ccc(OC)c(OC)c1 (stereo not drawn) [17e, Ethyl 4-({2-[(benzylcarbamoyl)methyl]-1-[(3,4-dimethoxyphenyl)methyl]-1,2,3,4-tetrahydroisoquinolin-6-yl}oxy)butanoate], which Kb (human OX1 receptors) is on record?
Its Kb is 1000 ± 190 nM.

And the “mode of antagonism at OX1” value (human OX1 receptors; 15 minute pre-incubation)?
Its value is “insurmountable antagonism”.

What about the “mode of antagonism at OX1” value (human OX1 receptors; [2]) of the same compound?
Its value is “competitive antagonists”.

What about the “mode of antagonism at OX1” value (human OX1 receptors; [3]) of the same compound?
Its value is “competitive antagonists”.

Which Kb (human OX1 receptors) does the source give for COc1ccc(CCNc2ccc3c(c2)CCN(CC(=O)NCc2ccccc2)C3Cc2ccc(OC)c(OC)c2)cc1OC (stereo not drawn) [25j, N-Benzyl-2-(6-{[2-(3,4-dimethoxyphenyl)ethyl]amino}-1-[(3,4-dimethoxyphenyl)methyl]-1,2,3,4-tetrahydroisoquinolin-2-yl)acetamide] here?
Its Kb is 2180 ± 360 nM.

What about the “mode of antagonism at OX1” value (human OX1 receptors; 15 minute pre-incubation) of the same compound?
The value was “insurmountable antagonism”.

What about the “mode of antagonism at OX1” value (human OX1 receptors; [2]) of the same compound?
Its value is “competitive antagonists”.

And the “mode of antagonism at OX1” value (human OX1 receptors; [3])?
Its value is “competitive antagonists”.

With COc1ccc(CC2c3ccc(NC(C)=O)cc3CCN2CC(=O)NCc2ccccc2)cc1OC (stereo not drawn) [28a, N-Benzyl-2-{1-[(3,4-dimethoxyphenyl)methyl]-6-acetamido-1,2,3,4-tetrahydroisoquinolin-2-yl}acetamide] as the compound, how does the Kb (human OX1 receptors) read?
The Kb was greater than 10000 nM.

With CCCCCNc1ccc2c(c1)CCN(CC(=O)NCc1ccccc1)C2Cc1ccc(OC)c(OC)c1 (stereo not drawn) [25r, N-Benzyl-2-{1-[(3,4-dimethoxyphenyl)methyl]-6-(pentylamino)-1,2,3,4-tetrahydroisoquinolin-2-yl}acetamide] as the compound, how does the Kb (human OX1 receptors) read?
Its Kb is greater than 10000 nM.

Which Kb (human OX1 receptors) does the source give for COc1ccc(CC2c3ccc(N(C)CC4CC4)cc3CCN2CC(=O)NCc2ccccc2)cc1OC (stereo not drawn) [25g, N-Benzyl-2-{6-[(cyclopropylmethyl)(methyl)amino]-1-[(3,4-dimethoxyphenyl)methyl]-1,2,3,4-tetrahydroisoquinolin-2-yl}acetamide] here?
Its Kb is 1400 ± 240 nM.

For COc1ccc(CC2c3ccc(NCCCc4ccccc4)cc3CCN2CC(=O)NCc2ccccc2)cc1OC (stereo not drawn) [25k, N-Benzyl-2-{1-[(3,4-dimethoxyphenyl)methyl]-6-[(3-phenylpropyl)amino]-1,2,3,4-tetrahydroisoquinolin-2-yl}acetamide], which Kb (human OX1 receptors) is on record?
Its Kb is 1180 ± 80 nM.

With CCOC(=O)CCCCCCNc1ccc2c(c1)CCN(CC(=O)NCc1ccccc1)C2Cc1ccc(OC)c(OC)c1 (stereo not drawn) [26g, Ethyl 7-({2-[(benzylcarbamoyl)methyl]-1-[(3,4-dimethoxyphenyl)methyl]-1,2,3,4-tetrahydroisoquinolin-6-yl}amino)heptanoate] as the compound, how does the Kb (human OX1 receptors) read?
Its Kb is greater than 10000 nM.

For COC(=O)CCCCNc1ccc2c(c1)CCN(CC(=O)NCc1ccccc1)C2Cc1ccc(OC)c(OC)c1 (stereo not drawn) [26f, Methyl 5-({2-[(benzylcarbamoyl)methyl]-1-[(3,4-dimethoxyphenyl)methyl]-1,2,3,4-tetrahydroisoquinolin-6-yl}amino)pentanoate], which Kb (human OX1 receptors) is on record?
The Kb was 1600 ± 190 nM.
